Data on 23 compounds can be found in US8304448B2, “Method for the treatment of metabolic disorder containing benzazole derivatives as an active ingredient” (Korea Research Institute of Bioscience and Biotechnology, priority 2006, dated 2012).

Each structure is given as a SMILES string.

One experiment has as its system DGAT. In words: Assay for inhibitory activity against DGAT ([14C]triacylglycerol formation, rat microsomal protein). It is filed as biochemical. To be noted: rat microsomal protein as enzyme source. An excerpt: The derivatives of Chemical Formula 1 in accordance with the present invention are found to inhibit the enzymatic activity of DGAT at a dose-dependent manner (refer to Table 2 and FIG. 1) as measured in a test in which [^14C]triacylglycerol was quantitatively analyzed after enzymatic reaction between 1,2-diacylglycerol and [^14C]palmitoyl-CoA, with microsomal proteins from rats serving as an enzyme source (refer to Example 1).
After enzymatic reaction between two substrates 1,2-diacylglycerol (Sigma, D0138) and [^14C]palmitoyl-CoA (Amersham, CFA583) with the microsomal protein of rat serving as an enzyme source in accordance with Coleman et al, Methods Enzymol., 98-103, 1992, the resulting product [^14C] triacylglycerol was measured for radioactivity. In detail, to a reaction buffer (175 mM Tris-HCl, pH 8.0, 20 μl bovine serum albumin (10 mg/ml), 100 mM MgCl2, 30 μM [^14C] palmitoyl-CoA (0.02 μCi, Amersham) and 200 μM 1,2-dioleoyl glycerol) was added 10 μl of a solution of the samples in dimethylsulfoxide (DMSO) and then 100˜200 μl of an isolated microsomal protein, followed by reaction at 25° C. for 10 min. The reaction was terminated with 1.5 ml of a mixture of 80:20:2 2-propanol:heptane:water (v:v:v). Thereafter, the [^14C] triacylglycerol thus formed was separated. In this regard, 1 ml of heptane and 0.5 ml of distilled water were added to the reaction mixture, which was then shaken. 1 ml of the supernatant thus formed was mixed with 2 ml of an alkaline ethanol solution (ethanol:0.5 N sodium hydroxide:water=50:10:40, v:v:v), followed by shaking. After being taken, 0.65 ml of the supernatant thus formed was measured for radioactivity using an LSC (liquid scintillation counter). The inhibitory activity against DGAT was calculated according to the following Mathematical Formula 1. The inhibitory effects of the benzazole derivatives on DGAT are summarized in Table 2, below while % DGAT inhibition is plotted against doses of compound 22 and 31 in FIG. 1.
T: Cpm of a test group in which a sample was added to an enzymatic buffer,
C: Cpm of a control in which no samples were added to an enzymatic buffer,
B: Cpm of a control in which a sample was added in the absence of any enzyme source.

Experiment [1] relates to ICR mice fed a high-fat diet. Nature of the experiment: In vivo assay for anti-obesity activity in mice fed a high-fat diet. Further details: species or system mouse. The conditions noted are these: high-fat diet. How it is done: Also, the derivatives of Chemical Formula 1 were tested for resistance to obesity by iterative oral administration at a dose of 10 mg/kg into ICR male mice (refer to Example 3). […] When they were administered, the levels of total triglycerides, total cholesterols, and low density lipoprotein (LDL)-cholesterol in the blood recovered to almost normal levels, with a significant increase observed in the level of high density lipoprotein (HDL)-cholesterol in the blood (refer to Tables 6 and 7 and FIGS. 3 and 4).
In order to verify the anti-obesity activity of the benzaldehyde derivatives of Chemical Formula 1 in accordance with the present invention, Compounds 22 and 31 were administered repetitively into rodents as follows.
The experimental animals were 6 week old ICR mice which were purchased from Japan SLC, Inc. via Central Lab. Animal Inc. Korea. They were acclimated to a new environment for one week before use, and fed with a foodstuff commercially available from Deyts, U.S.A. They were bred in an animal lab set at a temperature of 23±3° C. and RH 50±10% under light of 150˜300 Lux for a period of 12 hours (6 a.m.˜6 p.m.) with ventilation 10-20 times/hour. All of the 12 mice used were male, and were organized into two groups of 6. The test group was orally administered once a day at 4 p.m. with 10 mg/kg of the compound (Chemical Formula 1) in the form of a solution in biological saline for 35 days while the control was administered with biological saline only. Xenical, a commercially available lipase inhibitor, was administered orally at a dose of 10 mg/kg once a day as a positive control drug.
The animals were measured for body weight every week and sacrificed on Day 35, after which blood from the heart was sampled. Abdominal fat, epididymal fat, retroperitoneal fat and the liver were excised and weighed. Blood samples were assayed for total triglyceride, total cholesterol, HDL-cholesterol and LDL-cholesterol using respective test kits, all commercially available from Asan Pharmaceutical Co. Ltd., Korea.
For evidence of anti-obesity activity, compounds 22 and 31 were orally administered at regular intervals at a dose of 10 mg/kg into ICR male mice for a predetermined period of time with the concurrent provision of conditional diets thereto. Anatomized abdomens of the animals are given in the photographs of FIG. 2.

[2] abbreviates: Day 35, 10 mg/kg oral, Mean ± SD.
[3] abbreviates: blood, Day 35, 10 mg/kg oral, Mean ± SD.

With `COC(=O)c1ccc2nc(COc3ccc(Cl)cc3Cl)oc2c1` [compound 5, 2-(2,4-dichloro-phenoxymethyl)-benzoxazole-6-carboxylic acid methyl ester], in the experiment with DGAT, the “DGAT (% inhibition in 25 μM)” value stood at 1.98%.
As to `O=C(O)c1ccc2[nH]c(COc3ccc([N+](=O)[O-])cc3)nc2c1` [compound 19, 2-(4-nitro-phenoxymethyl)-1H-benzoimidazole-5-carboxylic acid], in the experiment with DGAT, the “DGAT (% inhibition in 5 μM)” value came to 2.0% and the “DGAT (% inhibition in 25 μM)” value is recorded as −5.86%.
As to `COC(=O)c1ccc2nc(COc3ccc(C(C)(C)C)cc3C(C)(C)C)oc2c1` [compound 7, 2-(2,4-tert-butyl-phenoxymethyl)-benzoxazole-6-carboxylic acid methyl ester], the “DGAT (% inhibition in 25 μM)” value with DGAT is 34.5%.
Same read-out and setting: the result for `COC(=O)c1ccc2oc(COc3ccc(C45CC6CC(CC(C6)C4)C5)cc3)nc2c1` [Cpd. 2, 2-(4-adamantan-1-yl-phenoxymethyl)-benzoxazole-5-carboxylic acid methyl ester] reads −25.72%.
For the compound `O=C(O)c1ccc2nc(COc3ccc(C45CC6CC(CC(C6)C4)C5)cc3)oc2c1` [compound 13, 2-(4-adamantan-1-yl-phenoxymethyl)-benzoxazole-6-carboxylic acid], in the experiment on DGAT, the “DGAT (% inhibition in 25 μM)” value is −18.53%.
Consider `CN(C)CCNC(=O)c1ccc2[nH]c(COc3ccc(C45CC6CC(CC(C6)C4)C5)cc3)nc2c1` [compound 32, 2-(4-adamantan-1-yl-phenoxymethyl)-1H-benzoimidazole-5-carboxylic acid (2-dimethylamino-ethyl)-amide], for which the “DGAT (% inhibition in 25 μM)” value with DGAT is on record as −3.08%.
With `CN(C)CCNC(=O)c1ccc2oc(COc3ccc(C45CC6CC(CC(C6)C4)C5)cc3)nc2c1` [compound 23, 2-(4-adamantan-1-yl-phenoxymethyl)-benzoxazole-5-carboxylic acid (2-dimethylamino-ethyl)-amide], the “DGAT (% inhibition in 25 μM)” value in the experiment with DGAT was 8.59%.
`NC(=O)c1ccc2nc(COc3ccc(C45CC6CC(CC(C6)C4)C5)cc3)[nH]c2c1` [compound 29, 2-(4-adamantan-1-yl-phenoxymethyl)-3H-benzoimidazole-5-carboxylic acid amide]: in the experiment on DGAT, the “DGAT (% inhibition in 5 μM)” value was −1.8% and the “DGAT (% inhibition in 25 μM)” value is recorded as −13.38%.
For `CC(C)(C)c1ccc(OCc2nc3cc(C(=O)O)ccc3[nH]2)cc1` [compound 18, 2-(4-tert-butyl-phenoxymethyl)-1H-benzoimidazole-5-carboxylic acid], in the experiment on DGAT, the “DGAT (% inhibition in 25 μM)” value is on record as −13.05%.
On the same count and under the same terms, the result for `O=C(O)c1ccc2oc(COc3ccc(C45CC6CC(CC(C6)C4)C5)cc3)nc2c1` [compound 12, 2-(4-adamantan-1-yl-phenoxymethyl)-benzoxazole-5-carboxylic acid] reads −10.43%.
Take `CC(C)(C)c1ccc(OCc2nc3ccc(C(=O)O)cc3o2)cc1` [compound 17, 2-(4-tert-butyl-phenoxymethyl)-benzoxazole-6-carboxylic acid]: the “DGAT (% inhibition in 25 μM)” value in the experiment on DGAT was −29.81%.
On the same count and under the same terms, the result for `COC(=O)c1ccc2oc(COc3ccc(Cl)cc3Cl)nc2c1` [Cpd. 1, 2-(2,4-dichloro-phenoxymethyl)-benzoxazole-5-carboxylic acid methyl ester] reads −2.64%.
As to `COC(=O)c1ccc2[nH]c(COc3ccc(Cl)cc3Cl)nc2c1` [compound 6, 2-(2,4-dichloro-phenoxymethyl)-1H-benzoimidazole-5-carboxylic acid methyl ester], the “DGAT (% inhibition in 25 μM)” value with DGAT stood at 0.63%.
For the compound `CN(C)C(=O)c1ccc2oc(COc3ccc(C45CC6CC(CC(C6)C4)C5)cc3)nc2c1` [compound 21, 2-(4-adamantan-1-yl-phenoxymethyl)-benzoxazole-5-carboxylic acid dimethylamide], the “DGAT (% inhibition in 25 μM)” value in the experiment on DGAT is reported as 10.49%.
Turning to `O=C(NCc1ccco1)c1ccc2nc(COc3ccc(C45CC6CC(CC(C6)C4)C5)cc3)oc2c1` [compound 27], the “DGAT (% inhibition in 25 μM)” value in the experiment on DGAT is reported as 13.26%.
In the case of `O=C(NCc1ccco1)c1ccc2nc(COc3ccc(Cl)cc3Cl)oc2c1` [compound 28, 2-(2,4-dichloro-phenoxymethyl)-benzoxazole-6-carboxylic acid (furan-2-ylmethyl)-amide], the “DGAT (% inhibition in 25 μM)” value in the experiment with DGAT is on record as −8.07%.
For `COC(=O)c1ccc2[nH]c(COc3ccc([N+](=O)[O-])cc3)nc2c1` [compound 9, 2-(4-nitro-phenoxymethyl)-1H-benzoimidazole-5-carboxylic acid methyl ester], in the experiment with DGAT, the “DGAT (% inhibition in 5 μM)” value is listed as −5.6% and the “DGAT (% inhibition in 25 μM)” value is recorded as 0.61%.
`O=C(NCc1ccco1)c1ccc2nc(COc3ccc(Cl)cc3Cl)[nH]c2c1` [compound 35, 2-(2,4-dichloro-phenoxymethyl)-3H-benzoimidazole-5-carboxylic acid (furan-2-ylmethyl)-amide]: the “DGAT (% inhibition in 25 μM)” value in the experiment on DGAT turned out to be 28.63%.
Take `O=C(O)c1ccc2[nH]c(COc3ccc(C45CC6CC(CC(C6)C4)C5)cc3)nc2c1` [compound 14, 2-(4-adamantan-1-yl-phenoxymethyl)-1H-benzoimidazole-5-carboxylic acid]: the “DGAT (% inhibition in 25 μM)” value with DGAT was −13.17%.
In the case of `COC(=O)c1ccc2nc(COc3ccc(C45CC6CC(CC(C6)C4)C5)cc3)oc2c1` [Cpd. 3, 2-(4-adamantan-1-yl-phenoxymethyl)-benzoxazole-6-carboxylic acid methyl ester], in the experiment with DGAT, the “DGAT (% inhibition in 25 μM)” value is −5.34%.
Consider `O=C(O)c1ccc2[nH]c(COc3ccc(Cl)cc3Cl)nc2c1` [compound 16, 2-(2,4-dichloro-phenoxymethyl)-1H-benzoimidazole-5-carboxylic acid], for which, in the experiment on DGAT, the “DGAT (% inhibition in 25 μM)” value is −7.37%.
With `O=C(O)c1ccc2oc(COc3ccc(Cl)cc3Cl)nc2c1` [compound 11, 2-(2,4-dichloro-phenoxymethyl)-benzoxazole-5-carboxylic acid], the “DGAT (% inhibition in 25 μM)” value with DGAT is given as −16.48%.
With `CCCCCCCCCCC[C@@H](C[C@@H]1OC(=O)[C@H]1CCCCCC)OC(=O)[C@H](CC(C)C)NC=O` [Xenical, reference compound], in experiment [1] (setting [2]), the “(Tissue Weight/Body Weight) × 100 Abdominal Fat + Epididymal Fat” value was found to be 2.45 ± 1.03, the “(Tissue Weight/Body Weight) × 100 Liver” value was 4.31 ± 0.76, the “(Tissue Weight/Body Weight) × 100 Retroperitoneal Fat” value was found to be 0.75 ± 0.50 and the “(Tissue Weight/Body Weight) × 100 Total Fat” value is recorded as 3.20 ± 1.52. In experiment [1] (setting [3]), the “HDL-Cholesterol” value was 30.28 ± 1.52 mg/dL, the “LDL-Cholesterol” value was determined as 20.45 ± 8.99 mg/dL, the “Total Cholesterol” value is 53.75 ± 12.35 mg/dL and the “Total Triglyceride” value is 40.77 ± 6.06 mg/dL. Moreover, the “inhibition of body weight gain” value in experiment [1] (10 mg/kg oral once a day for 35 days) was determined as 88%. The “Body Weight (g) (Mean ± SD) Week 0” value in experiment [1] (10 mg/kg oral once a day, Week 0) is 26.30 ± 1.45 g. In addition, the “Body Weight (g) (Mean ± SD) Week 1” value in experiment [1] (10 mg/kg oral once a day, Week 1) came out at 33.63 ± 1.28 g. Also, in experiment [1] (10 mg/kg oral once a day, Week 2), the “Body Weight (g) (Mean ± SD) Week 2” value was found to be 37.41 ± 2.02 g. In addition, the “Body Weight (g) (Mean ± SD) Week 3” value in experiment [1] (10 mg/kg oral once a day, Week 3) came to 39.11 ± 0.90 g. Further, the “Body Weight (g) (Mean ± SD) Week 4” value in experiment [1] (10 mg/kg oral once a day, Week 4) is 39.95 ± 1.26 g. Moreover, the “Body Weight (g) (Mean ± SD) Week 5” value in experiment [1] (10 mg/kg oral once a day, Week 5) was found to be 41.24 ± 1.60 g.
